Measurements published in PubChem BioAssay AID248 (DTP/NCI, 2004).
Values joined by “and” are separate entries in the source; they are usually repeats but may differ in a detail not shown here. Equal values may be shown once. Inconclusive results and toxic doses are left out.

Tested on: L1210 leukemia ip in BDF1 mice, survival T/C
Test: NCI In Vivo Anticancer Drug Screen. Data for tumor model L1210 Leukemia (intraperitoneal) in B6D2F1 (BDF1) mice
Details: endpoint: mean survival time, higher = longer survival
Outline: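 Ratio derived from survival: compound-dosed mice over vehicle-dosed mice, all bearing a transplantable tumor.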

[1] = dose: 100.0 mg/kg/injection, schedule: Q01DX001 (ip), vehicle: Klucel (hydroxypropylcellulose) (HPC)
[2] = dose: 100.0 mg/kg/injection, schedule: Q04DX003 (ip), vehicle: Klucel (hydroxypropylcellulose) (HPC)
[3] = dose: 200.0 mg/kg/injection, schedule: Q01DX001 (ip), vehicle: Klucel (hydroxypropylcellulose) (HPC)
[4] = dose: 200.0 mg/kg/injection, schedule: Q04DX003 (ip), vehicle: Klucel (hydroxypropylcellulose) (HPC)
[5] = dose: 400.0 mg/kg/injection, schedule: Q01DX001 (ip), vehicle: Klucel (hydroxypropylcellulose) (HPC)
[6] = dose: 400.0 mg/kg/injection, schedule: Q04DX003 (ip), vehicle: Klucel (hydroxypropylcellulose) (HPC)
[7] = dose: 100.0 mg/kg/injection, schedule: Q01DX001 (ip), vehicle: saline
[8] = dose: 200.0 mg/kg/injection, schedule: Q01DX001 (ip), vehicle: saline
[9] = dose: 400.0 mg/kg/injection, schedule: Q01DX001 (ip), vehicle: saline
[10] = dose: 25.0 mg/kg/injection, schedule: Q01DX009 (ip), vehicle: saline
[11] = dose: 50.0 mg/kg/injection, schedule: Q01DX009 (ip), vehicle: saline with Tween-80
[12] = dose: 100.0 mg/kg/injection, schedule: Q01DX009 (ip), vehicle: saline with Tween-80
[13] = dose: 200.0 mg/kg/injection, schedule: Q01DX009 (ip), vehicle: saline with Tween-80
[14] = dose: 100.0 mg/kg/injection, schedule: Q04DX003 (ip), vehicle: saline with Tween-80
[15] = dose: 200.0 mg/kg/injection, schedule: Q04DX003 (ip), vehicle: saline with Tween-80
[16] = dose: 400.0 mg/kg/injection, schedule: Q01DX009 (ip), vehicle: saline with Tween-80
[17] = dose: 400.0 mg/kg/injection, schedule: Q04DX003 (ip), vehicle: saline with Tween-80
[18] = dose: 100.0 mg/kg/injection, schedule: Q01DX001 (ip), vehicle: other
[19] = dose: 200.0 mg/kg/injection, schedule: Q01DX001 (ip), vehicle: other

For `Cc1ccc(S(=O)(=O)N=[N+]=[N-])cc1`, the T/C [1] was 95 % of control, the T/C (dose: 100.0 mg/kg/injection, schedule: Q01DX009 (ip), vehicle: Klucel (hydroxypropylcellulose) (HPC)) was 107 % of control and the T/C [2] was 95 % of control. The T/C [3] was 105 % of control, the T/C (dose: 200.0 mg/kg/injection, schedule: Q01DX009 (ip), vehicle: Klucel (hydroxypropylcellulose) (HPC)) was 107 % of control and the T/C [4] was 104 % of control. For the same compound, the T/C [5] was 100 % of control, the T/C (dose: 400.0 mg/kg/injection, schedule: Q01DX009 (ip), vehicle: Klucel (hydroxypropylcellulose) (HPC)) was 105 % of control and the T/C [6] was 107 % of control.

`Clc1ccc(OCc2sc3ccc(Br)cc3c2CN2CCOCC2)cc1` was tested, and the T/C (dose: 75.0 mg/kg/injection, schedule: Q01DX009 (ip), vehicle: Klucel (hydroxypropylcellulose) (HPC)) was 100 % of control, the T/C [2] was 94 % of control and the T/C (dose: 150.0 mg/kg/injection, schedule: Q01DX009 (ip), vehicle: Klucel (hydroxypropylcellulose) (HPC)) was 105 % of control. For the same compound, the T/C [4] was 96 % of control, the T/C (dose: 300.0 mg/kg/injection, schedule: Q01DX009 (ip), vehicle: Klucel (hydroxypropylcellulose) (HPC)) was 95 % of control and the T/C [6] was 89 % of control.

For `O=c1[nH][nH]c(=S)c(=O)[nH]1`, the T/C [7] was 102 % of control, the T/C [8] was 98 % of control and the T/C [9] was 104 % of control.

`CC(=O)/C(C)=N\NC(=O)c1ccccn1` was tested, and the T/C (dose: 25.0 mg/kg/injection, schedule: Q01DX015 (ip), vehicle: water) was 119 % of control, the T/C (dose: 50.0 mg/kg/injection, schedule: Q01DX001 (ip), vehicle: water) was 108 % of control and the T/C (dose: 50.0 mg/kg/injection, schedule: Q01DX015 (ip), vehicle: water) was 108 % of control. For the same compound, the T/C (dose: 100.0 mg/kg/injection, schedule: Q01DX001 (ip), vehicle: water) was 121 % of control, the T/C (dose: 100.0 mg/kg/injection, schedule: Q01DX015 (ip), vehicle: water) was 119 % of control and the T/C (dose: 200.0 mg/kg/injection, schedule: Q01DX001 (ip), vehicle: water) was 108 % of control.

In the case of `Cc1nn(-c2ccccc2)c(N)c1C#N`, the T/C [10] is reported as 100 % of control, the T/C (dose: 50.0 mg/kg/injection, schedule: Q01DX009 (ip), vehicle: saline) is reported as 97 % of control and the T/C (dose: 75.0 mg/kg/injection, schedule: Q01DX009 (ip), vehicle: saline) is reported as 98 % of control. For the same compound, the T/C (dose: 100.0 mg/kg/injection, schedule: Q01DX009 (ip), vehicle: saline) was 103 % of control and 121 % of control, the T/C (dose: 150.0 mg/kg/injection, schedule: Q01DX009 (ip), vehicle: saline) was 103 % of control and the T/C (dose: 200.0 mg/kg/injection, schedule: Q01DX009 (ip), vehicle: saline) was 106 % of control.

In the case of `C/C=C\C(=O)N(CC)C(=NCC)c1ccc(NC(=O)c2ccc(C(=O)Nc3ccc(C(=NCC)N(CC)C(=O)/C=C/C)cc3)cc2)cc1`, the T/C (dose: 0.56 mg/kg/injection, schedule: Q01DX015 (ip), vehicle: methylcellulose (MC)) is reported as 104 % of control, the T/C (dose: 1.12 mg/kg/injection, schedule: Q01DX015 (ip), vehicle: methylcellulose (MC)) is reported as 112 % of control and the T/C (dose: 2.25 mg/kg/injection, schedule: Q01DX015 (ip), vehicle: methylcellulose (MC)) is reported as 116 % of control. The T/C (dose: 4.5 mg/kg/injection, schedule: Q01DX015 (ip), vehicle: methylcellulose (MC)) was 172 % of control and the T/C (dose: 6.25 mg/kg/injection, schedule: Q01DX015 (ip), vehicle: methylcellulose (MC)) was 164 % of control.

`COc1ccc(NC(=O)C2C3C=CC(C3)C2C(=O)O)cc1` (stereo unspecified) was tested, and the T/C [11] was 98 % of control, the T/C [12] was 100 % of control and the T/C [13] was 100 % of control.

With `COC(=O)C(O)c1cccc(OC)c1` (stereo unspecified) the T/C [12] was 96 % of control, the T/C [14] was 107 % of control and the T/C [13] was 93 % of control. The T/C [15] was 96 % of control, the T/C [16] was 104 % of control and the T/C [17] was 105 % of control.

In the case of `CCN(Cc1ccccc1)C(=O)Nc1ccccc1`, the T/C (dose: 100.0 mg/kg/injection, schedule: Q04DX002 (ip), vehicle: Klucel (hydroxypropylcellulose) (HPC)) is reported as 101 % of control, the T/C (dose: 200.0 mg/kg/injection, schedule: Q04DX002 (ip), vehicle: Klucel (hydroxypropylcellulose) (HPC)) is reported as 93 % of control and the T/C (dose: 400.0 mg/kg/injection, schedule: Q04DX002 (ip), vehicle: Klucel (hydroxypropylcellulose) (HPC)) is reported as 97 % of control.

With `O=Cc1cc([N+](=O)[O-])ccc1O` the T/C [18] was 101 % of control, the T/C [19] was 97 % of control and the T/C (dose: 400.0 mg/kg/injection, schedule: Q01DX001 (ip), vehicle: other) was 103 % of control.

`CN(C)c1ccc2nc3c(C(=O)O)cc(=O)c(O)c-3oc2c1` was tested, and the T/C (dose: 50.0 mg/kg/injection, schedule: Q01DX001 (ip), vehicle: carboxymethylcellulose (CMC)) was 104 % of control and the T/C (dose: 100.0 mg/kg/injection, schedule: Q01DX001 (ip), vehicle: carboxymethylcellulose (CMC)) was 101 % of control.

`O=C(O)c1cc(N=Nc2ccccc2)ccc1O` was tested, and the T/C [11] was 96 % of control, the T/C (dose: 50.0 mg/kg/injection, schedule: Q04DX003 (ip), vehicle: other) was 93 % of control and the T/C [18] was 101 % of control. For the same compound, the T/C [12] was 94 % of control, the T/C (dose: 100.0 mg/kg/injection, schedule: Q04DX003 (ip), vehicle: other) was 93 % of control and the T/C (dose: 100.0 mg/kg/injection, schedule: Q04DX003 (ip), vehicle: saline) was 96 % of control. For the same compound, the T/C [19] was 107 % of control, the T/C (dose: 200.0 mg/kg/injection, schedule: Q04DX003 (ip), vehicle: other) was 98 % of control and the T/C (dose: 200.0 mg/kg/injection, schedule: Q04DX003 (ip), vehicle: saline) was 87 % of control.

In the case of `Cc1ccc(S(=O)(=O)C2=CC(=O)c3ccccc3C2=O)cc1`, the T/C (dose: 75.0 mg/kg/injection, schedule: Q01DX001 (ip), vehicle: other) is reported as 88 % of control.

With `N#C[S-].N#C[S-].[Au+3].[Au+3].[CH3-].[CH3-].[CH3-].[CH3-]` the T/C [11] was 96 % of control, the T/C [12] was 109 % of control and the T/C [13] was 105 % of control.

`CCCCCC[P+](c1ccccc1)(c1ccccc1)c1ccccc1` was tested, and the T/C (dose: 6.25 mg/kg/injection, schedule: Q01DX009 (ip), vehicle: saline) was 99 % of control, the T/C (dose: 6.25 mg/kg/injection, schedule: Q04DX003 (ip), vehicle: saline) was 101 % of control and the T/C (dose: 12.5 mg/kg/injection, schedule: Q01DX009 (ip), vehicle: saline) was 107 % of control. The T/C (dose: 12.5 mg/kg/injection, schedule: Q04DX003 (ip), vehicle: saline) was 100 % of control, the T/C [10] was 98 % of control and the T/C (dose: 25.0 mg/kg/injection, schedule: Q04DX003 (ip), vehicle: saline) was 103 % of control.

`O=Cc1ccc(C=O)cc1` was tested, and the T/C [14] was 94 % of control, the T/C [15] was 105 % of control and the T/C [17] was 106 % of control.

With `Cc1ccccc1C[As](C)(=O)O` the T/C [1] was 98 % of control and the T/C [3] was 118 % of control.

`C[C@]1(O)CC[C@H]2[C@@H]3CC[C@@H]4CC(=O)CC[C@]4(C)[C@@]3(F)C(=O)C[C@@]21C` was tested, and the T/C (dose: 50.0 mg/kg/injection, schedule: Q01DX Z (sc), vehicle: steriod suspending solution) was 96 % of control, the T/C (dose: 250.0 mg/kg/injection, schedule: Q01DX Z (sc), vehicle: steriod suspending solution) was 101 % of control and the T/C (dose: 500.0 mg/kg/injection, schedule: Q01DX Z (sc), vehicle: steriod suspending solution) was 98 % of control.

With `CC(=O)Nc1cccc(Cc2ccccc2)c1` the T/C [1] was 95 % of control, the T/C [2] was 100 % of control and the T/C [3] was 97 % of control. The T/C [4] was 103 % of control, the T/C [5] was 97 % of control and the T/C [6] was 108 % of control.

With `O=C(CC(O)(c1ccccc1)c1ccccc1)Nc1ccccn1` the T/C [18] was 89 % of control and the T/C [19] was 89 % of control.

For `CC(=O)N(C)c1cc([N+](=O)[O-])ccc1OCc1ccccc1`, the T/C (dose: 50.0 mg/kg/injection, schedule: Q01DX001 (ip), vehicle: saline) was 102 % of control and the T/C [7] was 96 % of control.

With `Nc1ccc(S(=O)O)cc1` the T/C [12] was 94 % of control, the T/C [14] was 105 % of control and the T/C [13] was 91 % of control. The T/C [15] was 95 % of control, the T/C [16] was 94 % of control and the T/C [17] was 91 % of control.

For `O=C(O)c1cccc2c1-c1ccccc1/C2=N\O`, the T/C [7] was 100 % of control, the T/C [8] was 110 % of control and the T/C [9] was 104 % of control.

For `CCCCC1CCCCC1`, the T/C [12] was 106 % of control, the T/C [13] was 98 % of control and the T/C [16] was 96 % of control.
